According to PubChem BioAssay (NCI):
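Grown in 96-well plates, cells were treated for 48 hours with each compound at five concentrations. Insufficient inhibition: endpoint recorded as highest concentration tested. GI50 = concentration required for 50% inhibition of growth. Definition used: TGI = concentration required for complete inhibition of growth.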

Tests used:
Experiment in all cases: NCI-60 cell line screen, 48 h
[1] = tested on: COLO 205 colon
[2] = tested on: A498 renal
[3] = tested on: SF-268 CNS
[4] = tested on: SW-620 colon
[5] = tested on: HOP-92 NSCLC
[6] = tested on: UO-31 renal
[7] = tested on: SNB-19 CNS
[8] = tested on: HCT-15 colon
[9] = tested on: NCI-H460 lung
[10] = tested on: MALME-3M melanoma
[11] = tested on: SK-MEL-5 melanoma
[12] = tested on: M14 melanoma
[13] = tested on: SF-295 CNS
[14] = tested on: UACC-62 melanoma
[15] = tested on: OVCAR-8 ovarian
[16] = tested on: MDA-MB-231 breast
[17] = tested on: SR leukemia
[18] = tested on: NCI/ADR-RES ovarian
[19] = tested on: K-562 leukemia
[20] = tested on: PC-3 prostate
[21] = tested on: NCI-H226 lung
[22] = tested on: U251 CNS
[23] = tested on: TK-10 renal
[24] = tested on: HCC-2998 colon
[25] = tested on: SF-539 CNS
[26] = tested on: OVCAR-4 ovarian
[27] = tested on: HS 578T breast
[28] = tested on: RPMI-8226 leukemia
[29] = tested on: DU-145 prostate
[30] = tested on: MCF7 breast
[31] = tested on: KM12 colon
[32] = tested on: HT29 colon
[33] = tested on: SNB-75 CNS
[34] = tested on: CAKI-1 renal
[35] = tested on: SK-MEL-2 melanoma
[36] = tested on: NCI-H23 lung
[37] = tested on: MDA-MB-435
[38] = tested on: SK-OV-3 ovarian
[39] = tested on: LOX IMVI melanoma
[40] = tested on: UACC-257 melanoma
[41] = tested on: NCI-H522 lung
[42] = tested on: ACHN renal
[43] = tested on: SN12C renal
[44] = tested on: T-47D breast
[45] = tested on: CCRF-CEM leukemia
[46] = tested on: HL-60(TB) leukemia
[47] = tested on: OVCAR-5 ovarian
[48] = tested on: RXF 393 renal
[49] = tested on: MOLT-4 leukemia
[50] = tested on: SK-MEL-28 melanoma
[51] = tested on: EKVX NSCLC
[52] = tested on: BT-549 breast
[53] = tested on: HCT-116 colon
[54] = tested on: IGROV1 ovarian
[55] = tested on: 786-0 renal
[56] = tested on: A549 NSCLC
[57] = tested on: HOP-62 NSCLC
[58] = tested on: OVCAR-3 ovarian

With COc1ccc(C(O)c2cc3c(N)c(C(=O)Nc4ccc(Br)cc4)sc3nc2C)cc1 (centres undefined) the GI50 [1] was 3.74 µM, the TGI [1] was 27 µM and the GI50 [2] was 3.54 µM. It also gave a TGI [2] of 19.8 µM, a GI50 [3] of 3.74 µM and a TGI [3] of 18.5 µM. The GI50 [4] was 3.37 µM, the TGI [4] was 25.9 µM and the GI50 [5] was 2.74 µM. The TGI [5] was 23 µM, the GI50 [6] was 4.22 µM and the TGI [6] was 21.3 µM. It also gave a GI50 [7] of 3.7 µM, a TGI [7] of 60.3 µM and a GI50 [8] of 1.57 µM. For the same compound, the TGI [8] was 13.4 µM, the GI50 [9] was 2.16 µM and the TGI [9] was 4.66 µM. For the same compound, the GI50 [10] was 2.43 µM, the TGI [10] was 13 µM and the GI50 [11] was 3.16 µM. It also gave a TGI [11] of 11.4 µM, a GI50 [12] of 2.35 µM and a TGI [12] of 20 µM. It also gave a GI50 [13] of 2.55 µM, a TGI [13] of 8.81 µM and a GI50 [14] of 2.49 µM. It also gave a TGI [14] of 29.1 µM, a GI50 [15] of 3.15 µM and a TGI [15] of 12.9 µM. For the same compound, the GI50 [16] was 3.18 µM, the TGI [16] was 16.9 µM and the GI50 [17] was 0.594 µM. It also gave a TGI [17] of over 100 µM, a GI50 [18] of 3.38 µM and a TGI [18] of 19 µM. It also gave a GI50 [19] of 1.13 µM, a TGI [19] of over 100 µM and a GI50 [20] of 3.2 µM. For the same compound, the TGI [20] was 25 µM, the GI50 [21] was 2.58 µM and the TGI [21] was 9.16 µM. The GI50 [22] was 2.5 µM, the TGI [22] was 11.2 µM and the GI50 [23] was 8.18 µM. For the same compound, the TGI [23] was 34.3 µM, the GI50 [24] was 2.68 µM and the TGI [24] was 10.4 µM. It also gave a GI50 [25] of 2.08 µM, a TGI [25] of 4.98 µM and a GI50 [26] of 2.01 µM. The TGI [26] was 6.57 µM, the GI50 [27] was 2.19 µM and the TGI [27] was 5.63 µM. It also gave a GI50 [28] of 2.32 µM, a TGI [28] of 19.7 µM and a GI50 [29] of 2.52 µM. The TGI [29] was 6.18 µM, the GI50 [30] was 1.63 µM and the TGI [30] was 15.2 µM. For the same compound, the GI50 [31] was 2.45 µM, the TGI [31] was 11.1 µM and the GI50 [32] was 2.4 µM. It also gave a TGI [32] of 6.51 µM, a GI50 [33] of 2.18 µM and a TGI [33] of 6.22 µM. It also gave a GI50 [34] of 3.5 µM, a TGI [34] of 14.2 µM and a GI50 [35] of 7.69 µM. It also gave a TGI [35] of 47.1 µM, a GI50 [36] of 6.11 µM and a TGI [36] of 82.2 µM. The GI50 [37] was 0.492 µM, the TGI [37] was 2.76 µM and the GI50 [38] was 3.04 µM. It also gave a TGI [38] of 12.9 µM, a GI50 [39] of 2.75 µM and a TGI [39] of 11.6 µM. The GI50 [40] was 3.51 µM, the TGI [40] was 34.6 µM and the GI50 [41] was 2.62 µM. The TGI [41] was 16 µM, the GI50 [42] was 3.93 µM and the TGI [42] was 16.4 µM. For the same compound, the GI50 [43] was 3.66 µM, the TGI [43] was 17.3 µM and the GI50 [44] was 3.14 µM. The TGI [44] was 39.7 µM, the GI50 [45] was 2.78 µM and the TGI [45] was over 100 µM. It also gave a GI50 [46] of 2.41 µM, a TGI [46] of 13.5 µM and a GI50 [47] of 3.58 µM. The TGI [47] was 31.9 µM, the GI50 [48] was 2.51 µM and the TGI [48] was 9.19 µM. The GI50 [49] was 3.27 µM, the TGI [49] was over 100 µM and the GI50 [50] was 5.16 µM. For the same compound, the TGI [50] was over 100 µM, the GI50 [51] was 3.29 µM and the TGI [51] was 35 µM. For the same compound, the GI50 [52] was 3.02 µM, the TGI [52] was 18.6 µM and the GI50 [53] was 2.4 µM. It also gave a TGI [53] of 11.3 µM, a GI50 [54] of 3.37 µM and a TGI [54] of 26 µM. The GI50 [55] was 7.58 µM, the TGI [55] was 29.3 µM and the GI50 [56] was 2.64 µM. For the same compound, the TGI [56] was 8.01 µM, the GI50 [57] was 3.02 µM and the TGI [57] was 11 µM. It also gave a GI50 [58] of 2.19 µM and a TGI [58] of 4.64 µM.

With C=C(C(=O)OC1C(CO)OC(OCC2CC[C@@H]3C[C@]4(OC(=O)C3=C)C(C)=CC(=O)C24)C(O)C1O)[C@@H]1CCC(CO)C2C(=O)C=C(C)[C@@]2(O)C1 (some centres undefined) the TGI [1] was 1.13 µM, the TGI [2] was 9.86 µM and the TGI [3] was 16.1 µM. It also gave a TGI [4] of 13.3 µM, a TGI [5] of 6.66 µM and a TGI [6] of 7.98 µM. For the same compound, the TGI [7] was 31.8 µM, the TGI [8] was 3.1 µM and the TGI [9] was 13.7 µM. It also gave a TGI [10] of 3.44 µM, a TGI [11] of 2.75 µM and a TGI [12] of 4.81 µM. For the same compound, the TGI [13] was 35 µM, the TGI [14] was 3.35 µM and the TGI [15] was 14.8 µM. The TGI [16] was 3.26 µM, the TGI [17] was 11.6 µM and the TGI [18] was 11.2 µM. It also gave a TGI [19] of 31.1 µM, a TGI [20] of 6.63 µM and a TGI [21] of 20.2 µM. It also gave a TGI [22] of 16 µM, a TGI [23] of 13.1 µM and a TGI [24] of 4.29 µM. For the same compound, the TGI [25] was 10.5 µM, the TGI [26] was 20.1 µM and the TGI [27] was over 53.1 µM. The TGI [28] was 9.12 µM, the TGI [29] was 17.6 µM and the TGI [30] was 12.8 µM. The TGI [31] was 8.31 µM, the TGI [32] was 6.37 µM and the TGI [33] was 29 µM. The TGI [34] was 7.93 µM, the TGI [35] was 8.29 µM and the TGI [36] was 5.12 µM. For the same compound, the TGI [37] was 5.04 µM, the TGI [38] was 55.9 µM and the TGI [39] was 6.32 µM. It also gave a TGI [40] of 5.17 µM, a TGI [41] of 0.783 µM and a TGI [42] of 12.3 µM. For the same compound, the TGI [43] was 5.42 µM, the TGI [44] was 24.3 µM and the TGI [45] was 1.3 µM. The TGI [46] was 3.76 µM, the TGI [47] was 7.15 µM and the TGI [48] was 4.14 µM. It also gave a TGI [49] of 8.41 µM, a TGI [50] of 14.8 µM and a TGI [51] of 8.61 µM. The TGI [52] was 3.52 µM, the TGI [53] was 3.07 µM and the TGI [54] was 12.6 µM. The TGI [55] was 7.85 µM, the TGI [56] was 18 µM and the TGI [57] was 24.9 µM. The TGI [58] was 14.7 µM.
